This assay in a line: multiple time-intensity profiling (mTIP) of astringency, trained panel. The conditions noted are these: 750 mg/kg EGCG + 125 mg/kg ascorbic acid; for Reduction (%) of astringency: 300 μg/kg Frescolat ML vs without; for Astringency with Frescolat ML: 300 μg/kg Frescolat ML. The format is in vivo. As for the experimental part:
In order to evaluate different attributes of a sample simultaneously over a particular period of time, the method of so-called “multiple time-intensity profiling” (mITP) was used. This descriptive method combines the advantages of the “dual-attribute time-intensity” (DATI) method, in which the intensities of two descriptors can be plotted on a two-dimensional plane, and the “time-intensity profiling” (TIP) method, in which more than two descriptors are evaluated in succession over time. In each mTIP test, trained panellists (n=15) are asked to take 2 mouthfuls (each 5 ml) of the sample to be evaluated, to wet the entire oral cavity therewith, and then to spit the sample out again. […] A parallel evaluation of more than two attributes is thus possible. The intensities are read after the first 10 seconds and then every 20 seconds over a period of 70 seconds. The data produced are analysed by means of Compusense® five and represented graphically as a time-intensity curve. In order to show the astringency-masking effect of L-lactic acid L-menthyl ester (Frescolat ML), the panel was trained inter alia with an aqueous test solution comprising 750 mg/kg of epigallocatechin gallate and 125 mg/kg of ascorbic acid. The panellists were asked to evaluate the test solution in respect of its bitterness and astringency using the above-described method. In a subsequent test, the two descriptors were evaluated on the one hand for the above-described test solution and on the other hand for the test solution plus 300 μg/kg of Frescolat ML. The results of both time-intensity curves were evaluated statistically and compared with one another in order to determine an astringency-masking effect of Frescolat® ML. For the significance calculation, the Student t-test, duplicated with paired random samples, was used.

1 compound from US9386787B2, “Preparations for oral consumption” (Symrise AG, priority 2012, dated 2016) can be followed below.

Each structure is given as a SMILES string. Marks after values point to notes of the source that are not given here.

For `CC(C)[C@@H]1CC[C@@H](C)C[C@H]1OC(=O)[C@H](C)O` [Frescolat ML, L-lactic acid L-menthyl ester], the “Reduction (%) of astringency” value by setting is: (time 0 sec) −0.49%; (time 10 sec) −14.29%; (time 30 sec, significant (p < 0.1)) −20.58* %; (time 50 sec, significant (p < 0.1)) −22.24* %; (time 70 sec) −17.82%. For the same compound, the “Astringency with Frescolat ML” value is given as 4.81 (time 0 sec); 4.11 (time 10 sec); 3.38 (time 30 sec); 2.58 (time 50 sec); 2.04 (time 70 sec).
